Results from ChEMBL document CHEMBL1649526, “Selection of heterogeneous vancomycin-intermediate Staphylococcus aureus by imipenem” (2009).
Values after ≈ are worked out from the molar mass of the structure shown. Positions of bridges follow the written chain, without caps; N, C: chain ends. Non-standard residues stand in square brackets, D forms with d. Residues, ends and D or L forms follow the SMILES beside them. *: point of attachment. Ileψ(thiazoline)Cys = CC[C@H](C)[C@H](N)C1=N[C@H](C(=O)*)CS1; dOrn = NCCC[C@@H](N)C(=O)O

What was measured:
Type in all cases: functional
Staphylococcus aureus [1] = assay: Antibacterial activity against hetero-Methicillin-resistant and tetracycline-resistant Staphylococcus aureus deltaIP by Etest method
Staphylococcus aureus [2] = assay: Antibacterial activity against homo-Methicillin-resistant and tetracycline-resistant Staphylococcus aureus H14 harboring vraS S329L mutant gene by Etest method
Staphylococcus aureus [3] = assay: Antibacterial activity against methicillin-susceptible, tetracycline-resistant and chloramphenicol-resistant Staphylococcus aureus deltaIP-KVR by Etest method
Staphylococcus aureus [4] = assay: Antibacterial activity against methicillin-susceptible, tetracycline-resistant and chloramphenicol-resistant Staphylococcus aureus H14-KVR by Etest method
Staphylococcus aureus [5] = assay: Antibacterial activity against hetero-Methicillin-resistant and tetracycline-resistant and rifampicin-resistant Staphylococcus aureus deltaIP-rifR harboring RpoB H481Y mutant gene by Etest method
Staphylococcus aureus [6] = assay: Antibacterial activity against homo-Methicillin-resistant and tetracycline-resistant Staphylococcus aureus deltaIP::vraSH14 harboring vraSH14 S329L mutant gene by Etest method
Staphylococcus aureus [7] = assay: Antibacterial activity against homo-Methicillin-resistant and tetracycline-resistant and rifampicin-resistant Staphylococcus aureus deltaIP-rifR::vraSH14 by Etest method
Staphylococcus aureus [8] = assay: Antibacterial activity against hetero-vancomycin-intermediate Staphylococcus aureus Mu3 by Etest method

Compound: CCCCCCCCCC(=O)N[C@@H](Cc1c[nH]c2ccccc12)C(=O)N[C@H](CC(N)=O)C(=O)N[C@@H](CC(=O)O)C(=O)N[C@@H]1C(=O)NCC(=O)N[C@@H](CCCN)C(=O)N[C@@H](CC(=O)O)C(=O)N[C@H](C)C(=O)N[C@@H](CC(=O)O)C(=O)NCC(=O)N[C@H](CO)C(=O)N[C@@H]([C@H](C)CC(=O)O)C(=O)N[C@@H](CC(=O)c2ccccc2N)C(=O)O[C@@H]1C
- MIC (Staphylococcus aureus [1]): 0.75 µg/mL (≈ 0.463 µM)
- MIC (Staphylococcus aureus [2]): 1.75 µg/mL (≈ 1.08 µM)
- MIC (Staphylococcus aureus [3]): 0.5 µg/mL (≈ 0.309 µM)
- MIC (Staphylococcus aureus [4]): 0.5 µg/mL (≈ 0.309 µM)
- MIC (Staphylococcus aureus [5]): 0.5 µg/mL (≈ 0.309 µM)
- MIC (Staphylococcus aureus [6]): 1.75 µg/mL (≈ 1.08 µM)
- MIC (Staphylococcus aureus [7]): 2 µg/mL (≈ 1.23 µM)
- MIC (Staphylococcus aureus [8]): 2 µg/mL (≈ 1.23 µM)

Compound: CC[C@H](C)[C@H](N)C1=N[C@H](C(=O)N[C@@H](CC(C)C)C(=O)N[C@H](CCC(=O)O)C(=O)N[C@H](C(=O)N[C@H]2CCCCNC(=O)[C@H](CC(N)=O)NC(=O)[C@@H](CC(=O)O)NC(=O)[C@H](Cc3cnc[nH]3)NC(=O)[C@@H](Cc3ccccc3)NC(=O)[C@H]([C@@H](C)CC)NC(=O)[C@@H](CCCN)NC2=O)[C@@H](C)CC)CS1 [BACITRACIN] ({Ileψ(thiazoline)Cys}-L[dE]IK[dOrn]I[dF]H[dD]N; lactam 4-C)
- MIC (Staphylococcus aureus [1]): 32 µg/mL (≈ 22.5 µM)
- MIC (Staphylococcus aureus [2]): 96 µg/mL (≈ 67.5 µM)
- MIC (Staphylococcus aureus [3]): 4 µg/mL (≈ 2.81 µM)
- MIC (Staphylococcus aureus [4]): 4 µg/mL (≈ 2.81 µM)
- MIC (Staphylococcus aureus [5]): 24 µg/mL (≈ 16.9 µM)
- MIC (Staphylococcus aureus [6]): 96 µg/mL (≈ 67.5 µM)
- MIC (Staphylococcus aureus [7]): 96 µg/mL (≈ 67.5 µM)
- MIC (Staphylococcus aureus [8]): 256 µg/mL (≈ 180 µM)

Compound: C[C@@H]1O[C@@H]1P(=O)(O)O [FOSFOMYCIN]
- MIC (Staphylococcus aureus [1]): 1 µg/mL (≈ 7.24 µM)
- MIC (Staphylococcus aureus [2]): 96 µg/mL (≈ 695 µM)
- MIC (Staphylococcus aureus [3]): 0.38 µg/mL (≈ 2.75 µM)
- MIC (Staphylococcus aureus [4]): 0.38 µg/mL (≈ 2.75 µM)
- MIC (Staphylococcus aureus [5]): 1.5 µg/mL (≈ 10.9 µM)
- MIC (Staphylococcus aureus [6]): 96 µg/mL (≈ 695 µM)
- MIC (Staphylococcus aureus [7]): 96 µg/mL (≈ 695 µM)
- MIC (Staphylococcus aureus [8]): > 1020 µg/mL

Compound: C[C@@H](O)[C@H]1C(=O)N2C(C(=O)O)=C(SCCNC=N)C[C@H]12 [IMIPENEM ANHYDROUS]
- MIC (Staphylococcus aureus [1]): 0.75 µg/mL (≈ 2.51 µM)
- MIC (Staphylococcus aureus [2]): > 32 µg/mL
- MIC (Staphylococcus aureus [3]): 0.19 µg/mL (≈ 0.635 µM)
- MIC (Staphylococcus aureus [4]): 0.19 µg/mL (≈ 0.635 µM)
- MIC (Staphylococcus aureus [5]): 1 µg/mL (≈ 3.34 µM)
- MIC (Staphylococcus aureus [6]): > 32 µg/mL
- MIC (Staphylococcus aureus [7]): > 32 µg/mL
- MIC (Staphylococcus aureus [8]): > 32 µg/mL

Compound: Cc1onc(-c2ccccc2)c1C(=O)N[C@@H]1C(=O)N2[C@@H]1SC(C)(C)[C@@H]2C(=O)O [OXACILLIN]
- MIC (Staphylococcus aureus [1]): 6 µg/mL (≈ 14.9 µM)
- MIC (Staphylococcus aureus [2]): > 256 µg/mL
- MIC (Staphylococcus aureus [3]): 1.5 µg/mL (≈ 3.74 µM)
- MIC (Staphylococcus aureus [4]): 1.5 µg/mL (≈ 3.74 µM)
- MIC (Staphylococcus aureus [5]): 5 µg/mL (≈ 12.5 µM)
- MIC (Staphylococcus aureus [6]): > 256 µg/mL
- MIC (Staphylococcus aureus [7]): > 256 µg/mL
- MIC (Staphylococcus aureus [8]): > 256 µg/mL

Compound: CO[C@H]1/C=C/O[C@@]2(C)Oc3c(C)c(O)c4c(O)c(c(/C=N/N5CCN(C)CC5)c(O)c4c3C2=O)NC(=O)/C(C)=C\C=C\[C@H](C)[C@H](O)[C@@H](C)[C@@H](O)[C@@H](C)[C@H](OC(C)=O)[C@@H]1C [RIFAMPIN]
- MIC (Staphylococcus aureus [1]): 0.004 µg/mL (≈ 0.00486 µM)
- MIC (Staphylococcus aureus [2]): 0.004 µg/mL (≈ 0.00486 µM)
- MIC (Staphylococcus aureus [3]): 0.004 µg/mL (≈ 0.00486 µM)
- MIC (Staphylococcus aureus [4]): 0.004 µg/mL (≈ 0.00486 µM)
- MIC (Staphylococcus aureus [5]): > 32 µg/mL
- MIC (Staphylococcus aureus [6]): 0.004 µg/mL (≈ 0.00486 µM)
- MIC (Staphylococcus aureus [7]): > 32 µg/mL
- MIC (Staphylococcus aureus [8]): 0.006 µg/mL (≈ 0.00729 µM)

Compound: CN[C@H](CC(C)C)C(=O)N[C@H]1C(=O)N[C@@H](CC(N)=O)C(=O)N[C@H]2C(=O)N[C@H]3C(=O)N[C@H](C(=O)N[C@H](C(=O)O)c4cc(O)cc(O)c4-c4cc3ccc4O)[C@H](O)c3ccc(c(Cl)c3)Oc3cc2cc(c3O[C@@H]2O[C@H](CO)[C@@H](O)[C@H](O)[C@H]2O[C@H]2C[C@](C)(N)[C@H](O)[C@H](C)O2)Oc2ccc(cc2Cl)[C@H]1O [VANCOMYCIN]
- MIC (Staphylococcus aureus [3]): 0.75 µg/mL (≈ 0.518 µM)
- MIC (Staphylococcus aureus [4]): 0.75 µg/mL (≈ 0.518 µM)
- MIC (Staphylococcus aureus [7]): 3 µg/mL (≈ 2.07 µM)
- MIC (Staphylococcus aureus [8]): 3 µg/mL (≈ 2.07 µM)

Compound: GENTAMICIN
- MIC (Staphylococcus aureus [1]): 0.75 µg/mL
- MIC (Staphylococcus aureus [2]): 0.75 µg/mL
- MIC (Staphylococcus aureus [3]): 0.75 µg/mL
- MIC (Staphylococcus aureus [4]): 0.75 µg/mL
- MIC (Staphylococcus aureus [5]): 1 µg/mL
- MIC (Staphylococcus aureus [6]): 0.75 µg/mL
- MIC (Staphylococcus aureus [7]): 1 µg/mL
- MIC (Staphylococcus aureus [8]): 384 µg/mL
